Results taken from US20240141299A1, “Cofactors FAD and PLP for Promoting Pancreatic Progenitors in Pancreatic Development” (Qatar Foundation for Education, Science and Community …, priority 2022, published 2024).

Legend:
SOX2 HMG domain = biological target: T1, SOX2 HMG domain (Homo sapiens, UniProt P48431); test: UV-visible absorbance spectroscopy of purified SOX2 HMG domain for bound cofactor; assay type: binding; settings: purified SOX2 HMG domain from bacterial expression
T1 construct: made in house

[1] = test system: hiPSC-derived pancreatic progenitors; test: Western blotting of transcription factors in FAD-treated pancreatic progenitors; assay type: cell-based, human; settings: FIG. 7
Procedure: (§1) Human induced pluripotent stem cells (hiPSCs) are cultured and maintained using mTeSR Plus medium (Stem Cell Technologies, Canada), then plated on 1:50 Matrigel-coated dishes (Corning, USA). Upon reaching 70-80% confluency, cells are differentiated into pancreatic progenitors using a protocol described by Memon et al. (Memon et al. Stem Cell Research and Therapy, 9, Article 15, 2018). Cells are treated with different concentrations of FAD (0.25 μM, 0.5 μM, and 1 μM) (Sigma-Aldrich, Germany) during the four days of pancreatic progenitor stage of in vitro differentiation. The control cells are treated with water. After the treatment period, cells are fixed and immunostaining is performed using previously reported protocols by Memon et al. Cells are also collected for total protein extraction using Radioimmunoprecipitation Assay (RIPA) lysis buffer and are normalized to 20 ng/μL before SDS-PAGE separation. Nitrocellulose membranes are blocked using 15% skimmed milk in 0.5% tris-buffered saline (TBST). Membranes are then incubated with primary antibodies overnight at 4° C. Membranes are washed with 0.5% TBST and secondary antibodies are added for 1 hour at room temperature. Membranes are developed using SuperSignal West Pico Chemiluminescent substrate (Pierce, Loughborough, UK) and are then visualized using iBright™ CL 1000 Imaging System (Invitrogen).

SOX9 HMG domain [2] = biological target: T2, SOX9 HMG domain (Mus musculus, UniProt Q04887); test: UV-visible absorbance spectroscopy of purified SOX9 HMG domain for bound cofactor; assay type: binding; settings: purified SOX9 HMG domain from bacterial expression; FIG. 1E
T2 construct: construct containing HMG and N-terminal domain, 1-173 amino acids; His tag (pET-28a) (N); made in house; host or cells: E. coli BL21(DE3)-RIL
T2 sequence (Q04887 1-173): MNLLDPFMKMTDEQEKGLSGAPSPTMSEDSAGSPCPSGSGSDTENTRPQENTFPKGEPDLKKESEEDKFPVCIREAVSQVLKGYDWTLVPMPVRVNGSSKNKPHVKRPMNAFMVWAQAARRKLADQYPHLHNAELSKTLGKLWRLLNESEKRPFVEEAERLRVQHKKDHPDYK
Procedure: Purified SOX9 proteins of 2-4 mg/ml concentration are used for reading the absorbance of bind cofactors. The UV-Vis spectra are obtained on a UV-Vis spectrophotometer BMS (Biotechnology Medical Science) UV-1602, scanning from 300 nm to 800 nm. The baseline is corrected with the buffer used to prepare the protein samples.

[3] = test system: hiPSC-derived pancreatic progenitors; test: Expression of pancreatic developmental markers after cofactor treatment of differentiating hiPSCs (FIG. 5, FIG. 8); assay type: cell-based, human
Procedure: Human induced pluripotent stem cells (hiPSCs) are cultured and maintained using mTeSR Plus medium (Stem Cell Technologies, Canada), then plated on 1:50 Matrigel-coated dishes (Corning, USA). Upon reaching 70-80% confluency, cells are differentiated into pancreatic progenitors using a protocol described by Memon et al. (Memon et al. Stem Cell Research and Therapy, 9, Article 15, 2018). Cells are treated with different concentrations of FAD (0.25 μM, 0.5 μM, and 1 μM) (Sigma-Aldrich, Germany) during the four days of pancreatic progenitor stage of in vitro differentiation. The control cells are treated with water.

[4] = test system: hiPSC-derived pancreatic progenitors; test: Immunostaining of PDX1 and NKX6.1 in FAD-treated pancreatic progenitors; assay type: cell-based, human; settings: different FAD concentrations during four days of pancreatic progenitor stage; FIG. 6
Procedure: as §1

SOX9 HMG domain [5] = biological target: T2, SOX9 HMG domain; test: 1D-PAGE in-gel digest and LC-MS/MS of SOX9 HMG domain to identify bound cofactor; assay type: binding; settings: purified SOX9 HMG domain; FIG. 2
Procedure: MS data are analyzed and annotated with Genedata Expressionist software (v.13.0.1) using the Peptide Mapping Tool. The raw MS data are processed using two Genedata modules: Refiner MS for data pre-processing, and Analyst for data post-processing and statistical analyses. Briefly, after noise reduction, LC-MS1 base peaks are detected and their properties calculated (m/z and RT boundaries, m/z and RT center values, intensity). Chromatograms are further aligned based on the RT spectra using a 2 min range. Individual peaks are grouped into clusters and MS/MS data associated to these clusters are annotated with the Peptide Mapping Tool using the FASTA sequence of sp|Q04887|SOX9_MOUSE Transcription factor SOX-9. The search is performed with a peptide tolerance of 0.1 Da, a MS/MS tolerance of 0.01 Da, two allowed missed cleavages, and only annotations with a minimum score of 10 are considered. As variable modifications, the following parameters are applied: carbamidomethyl (C) maximum: 2 per sequence allowed: anywhere, FAD (C), FAD (H), FAD (Y) maximum: 2 per sequence allowed: anywhere, FMN (S), FMN (T) maximum: 2 per sequence allowed: anywhere, pyridoxal phosphate (K) maximum: 2 per sequence allowed: anywhere, and pyridoxal phosphate H2 (K) maximum: 2 per sequence allowed: anywhere.

T1 sequence (P48431 41-109 limits assumed): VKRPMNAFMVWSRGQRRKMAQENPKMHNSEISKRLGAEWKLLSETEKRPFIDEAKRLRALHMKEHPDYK

| SMILES | absorbance peak at approximately 420 nm (FAD-bound protein) (SOX2 HMG domain) | PTF1a level (exocrine marker) ([1]; 0.5 μM and 1 μM FAD) | SOX9 level ([1]; FAD 0.25 μM, 0.5 μM, 1 μM, four days of pancreatic progenitor stage) | absorbance peak at approximately 420 nm (FAD-bound protein) (SOX9 HMG domain [2]) | relative changes in NGN3 and NKX6.1 ([3]; FAD added to early stage differentiation, FIG. 5) | expression of NGN3 ([3]; about 0.5 μM FAD, FIG. 8A) | co-expression of PDX1 and NKX6.1 (efficiency of pancreatic progenitor differentiation) [4] | cofactor binding detected by LC-MS/MS peaks (SOX9 HMG domain [5]) | expression of NGN3 ([3]; about 4 μM-8 μM PLP, FIG. 8B) | expression of PTF1a ([3]; about 4 μM-8 μM PLP, FIG. 8B) |
| --- | --- | --- | --- | --- | --- | --- | --- | --- | --- | --- |
| Cc1cc2nc3c(=O)[nH]c(=O)nc-3n(C[C@H](O)[C@H](O)[C@H](O)COP(=O)(O)OP(=O)(O)OC[C@H]3O[C@@H](n4cnc5c(N)ncnc54)[C@H](O)[C@@H]3O)c2cc1C [FAD, Flavin Adenine Dinucleotide] | no obvious peak | increased | increases gradually with increased FAD concentrations | peak at approximately 420 nm characteristic of an FAD-bound protein | appears to increase pancreatic developmental factors | along with NGN3 | most of the pancreatic progenitor cells co-expressed PDX1 and NKX6.1 | suggestive of FAD, FMN and PLP binding |  |  |
| Cc1ncc(COP(=O)(O)O)c(C=O)c1O [PLP, Pyridoxal 5′-phosphate] |  |  |  |  |  |  |  | suggestive of FAD, FMN and PLP binding | high expression of NGN3 | appearance of PTF1a |
| Cc1cc2nc3c(=O)[nH]c(=O)nc-3n(C[C@H](O)[C@H](O)[C@H](O)COP(=O)(O)O)c2cc1C [FMN, Flavin Mononucleotide] |  |  |  |  |  |  |  | suggestive of FAD, FMN and PLP binding |  |  |
